Laboratory results taken from ChEMBL document CHEMBL4483862, “Open-source discovery of chemical leads for next-generation chemoprotective antimalarials” (2018).

Tested on: Plasmodium berghei
Test: Luciferase/luciferin-expressing antifolate-resistant parasites were used to infect a culture of HepG2 cells that were pre-incubated with compounds. Infected hepatocytes emit light due to the luciferase reaction. Assay results are presented as the percent inhibition of light emission compared to control. […]
Type: functional
Conditions: sporozoite; for IC90: read-out: LUCIFERASE INFECTION ASSAY - IC90

With `CN(C)c1cc[n+](CC(=O)Nc2ccc(OC(F)F)cc2)cc1` the IC50 (HEPG2TOX_HILL_SLOPE 2.17, HEPG2TOX_R_SQUARED 0.89, read-out: LUCIFERASE INFECTION ASSAY - IC50) was > 10 µM and the IC90 was > 10 µM.

`CCCCOc1ccc(/C=C/C(=O)NNC(=O)Cc2nc3ccccc3n2C)cc1OCC` was tested, and the IC50 (HEPG2TOX_HILL_SLOPE 2.18, HEPG2TOX_R_SQUARED 0.787, PBLUC_HILL_SLOPE 13.4, PBLUC_R_SQUARED 0.401, read-out: LUCIFERASE INFECTION ASSAY - IC50) was 7.73 µM and the IC90 was 9.1 µM.

For `COc1cc(-c2ccc3ncc(-c4cccc(C(C)=O)c4)n3n2)cc(OC)c1OC`, the IC50 (HEPG2TOX_HILL_SLOPE 2.19, HEPG2TOX_R_SQUARED 0.885, PBLUC_HILL_SLOPE 9.54, PBLUC_R_SQUARED 0.57, read-out: LUCIFERASE INFECTION ASSAY - IC50) was 1.11 µM and the IC90 was 1.39 µM.

`Cc1ccccc1-c1cc2c(cn1)nc(NCc1ccccc1F)n2C` showed an IC50 (HEPG2TOX_HILL_SLOPE 2.16, HEPG2TOX_R_SQUARED 0.829, PBLUC_HILL_SLOPE 2.78, PBLUC_R_SQUARED 0.577, read-out: LUCIFERASE INFECTION ASSAY - IC50) of 3.87 µM and an IC90 of 8.53 µM.

In the case of `COc1ccc(N(CCCN2C(=O)c3cccc4cccc(c34)C2=O)C(=O)c2ccccc2Cl)cc1`, the IC50 (HEPG2TOX_HILL_SLOPE 2.18, HEPG2TOX_R_SQUARED 0.863, PBLUC_HILL_SLOPE 2.29, PBLUC_R_SQUARED 0.755, read-out: LUCIFERASE INFECTION ASSAY - IC50) is reported as 0.251 µM and the IC90 is reported as 0.656 µM.

Work on `Cc1ccc(-c2cnc3ccc(NC4CCOCC4)nn23)cc1C` yielded an IC50 (HEPG2TOX_HILL_SLOPE 2.16, HEPG2TOX_R_SQUARED 0.752, PBLUC_HILL_SLOPE 1.94, PBLUC_R_SQUARED 0.563, read-out: LUCIFERASE INFECTION ASSAY - IC50) of 1.46 µM and an IC90 of 4.53 µM.

For `Cc1ccc(S(=O)(=O)N2CCSc3cc(Cl)ccc32)cc1`, the IC50 (HEPG2TOX_HILL_SLOPE 2.16, HEPG2TOX_R_SQUARED 0.961, PBLUC_HILL_SLOPE 19.3, PBLUC_R_SQUARED 0.449, read-out: LUCIFERASE INFECTION ASSAY - IC50) was 3.12 µM and the IC90 was 3.49 µM.

`COc1ccc(C2=NN=C/C2=N\Nc2ccccc2)cc1` showed an IC50 (HEPG2TOX_HILL_SLOPE 2.19, HEPG2TOX_R_SQUARED 0.971, PBLUC_HILL_SLOPE 2.49, PBLUC_R_SQUARED 0.567, read-out: LUCIFERASE INFECTION ASSAY - IC50) of 1.61 µM and an IC90 of 3.89 µM.

`Clc1ccc(-c2cnc3cnc(-c4cccnc4)cn23)cc1` gave an IC50 (HEPG2TOX_HILL_SLOPE 2.16, HEPG2TOX_R_SQUARED 0.901, PBLUC_HILL_SLOPE 2.19, PBLUC_R_SQUARED 0.923, read-out: LUCIFERASE INFECTION ASSAY - IC50) of 0.659 µM and an IC90 of 1.8 µM.

For `COc1cc(C#N)ccc1Oc1ccnc2cc(Cl)ccc12`, the IC50 (HEPG2TOX_HILL_SLOPE 2.16, HEPG2TOX_R_SQUARED 0.625, PBLUC_HILL_SLOPE 9.16, PBLUC_R_SQUARED 0.449, read-out: LUCIFERASE INFECTION ASSAY - IC50) was 8.55 µM and the IC90 was > 10 µM.

`COc1ccccc1-c1cc(NC(C)=O)c2ncc(-c3cc(OC)c(OC)c(OC)c3)n2c1` gave an IC50 (HEPG2TOX_HILL_SLOPE 2.18, HEPG2TOX_R_SQUARED 0.547, PBLUC_HILL_SLOPE 12.3, PBLUC_R_SQUARED 0.226, read-out: LUCIFERASE INFECTION ASSAY - IC50) of 2.47 µM and an IC90 of 2.96 µM.

`COc1ccc(Br)cc1-c1nc(CN2C(=O)NC(C)(c3ccccc3)C2=O)cs1` (stereo not given) gave an IC50 (HEPG2TOX_HILL_SLOPE 2.19, HEPG2TOX_R_SQUARED 0.876, PBLUC_HILL_SLOPE 2.71, PBLUC_R_SQUARED 0.259, read-out: LUCIFERASE INFECTION ASSAY - IC50) of 2.49 µM and an IC90 of 5.61 µM.

For `COC(=O)c1ccc2[nH]c3c(c2c1)CN(c1ncnc2ccccc12)CC3`, the IC50 (HEPG2TOX_HILL_SLOPE 2.18, 2.21, HEPG2TOX_R_SQUARED 0.310, 0.448, PBLUC_HILL_SLOPE 1.05, 1.29, PBLUC_R_SQUARED 0.612, 0.824, read-out: LUCIFERASE INFECTION ASSAY - IC50) was 1.63 µM and the IC90 was 9.79 µM.

For `O=S(=O)(Nc1cc(F)c(Br)cc1F)c1cc(C(F)(F)F)cc(C(F)(F)F)c1`, the IC50 (HEPG2TOX_HILL_SLOPE 2.19, HEPG2TOX_R_SQUARED 0.933, PBLUC_HILL_SLOPE 2.47, PBLUC_R_SQUARED 0.245, read-out: LUCIFERASE INFECTION ASSAY - IC50) was 2.98 µM and the IC90 was > 6.82 µM.

Compound `O=C(NC1CC1)c1ccc(-c2cnc3c(NCc4ccc5c(c4)OCO5)nccn23)cc1` has an IC50 (HEPG2TOX_HILL_SLOPE 2.15, HEPG2TOX_R_SQUARED 0.624, PBLUC_HILL_SLOPE 12.5, PBLUC_R_SQUARED 0.564, read-out: LUCIFERASE INFECTION ASSAY - IC50) of 2.51 µM and an IC90 of 2.99 µM.

With `CCCNC(=O)c1csc(C(O)c2ccc(C(C)(C)C)cc2)n1` (stereo not given) the IC50 (HEPG2TOX_HILL_SLOPE 2.18, HEPG2TOX_R_SQUARED 0.794, read-out: LUCIFERASE INFECTION ASSAY - IC50) was > 10 µM and the IC90 was > 10 µM.

In the case of `CO[C@H]1[C@H](C)O[C@@H](O[C@H]2CC[C@]3(C)C4C[C@@H](O)[C@]5(C)[C@@H](C6=CC(=O)OC6)[C@@H](OC(C)=O)C[C@]5(O)C4CC[C@@H]3C2)C[C@@H]1O` (stereo not given in full), the IC50 (HEPG2TOX_HILL_SLOPE 2.15, HEPG2TOX_R_SQUARED 0.965, PBLUC_HILL_SLOPE 1.44, PBLUC_R_SQUARED 0.806, read-out: LUCIFERASE INFECTION ASSAY - IC50) is reported as 0.136 µM and the IC90 is reported as 0.626 µM.

For `Cc1ccc2nc(NC(=O)c3ccc(C#N)cc3)c(C(=O)NC3CCCCC3)n2c1`, the IC50 (HEPG2TOX_HILL_SLOPE 2.19, HEPG2TOX_R_SQUARED 0.834, PBLUC_HILL_SLOPE 2.97, PBLUC_R_SQUARED 0.239, read-out: LUCIFERASE INFECTION ASSAY - IC50) was 4.92 µM and the IC90 was > 8.22 µM.

In the case of `CC(C)c1nc2ccccc2n1Cc1cccc2ccccc12`, the IC50 (HEPG2TOX_HILL_SLOPE 2.18, HEPG2TOX_R_SQUARED 0.953, PBLUC_HILL_SLOPE 14.4, PBLUC_R_SQUARED 0.432, read-out: LUCIFERASE INFECTION ASSAY - IC50) is reported as 3.58 µM and the IC90 is reported as 4.17 µM.

In the case of `CCOc1ccc(OCC)c(S(=O)(=O)Oc2cccc3ccc(C)nc23)c1`, the IC50 (HEPG2TOX_HILL_SLOPE 2.15, HEPG2TOX_R_SQUARED 0.762, PBLUC_HILL_SLOPE 2.2, PBLUC_R_SQUARED 0.11, read-out: LUCIFERASE INFECTION ASSAY - IC50) is reported as 7.25 µM and the IC90 is reported as > 8.52 µM.

In the case of `COc1ccc(C2C(C(=O)OCc3cccc4ccccc34)CCC(=O)N2c2ccc(C)cc2)cc1OC` (stereo not given), the IC50 (HEPG2TOX_HILL_SLOPE 2.17, HEPG2TOX_R_SQUARED 0.745, PBLUC_HILL_SLOPE 19.2, PBLUC_R_SQUARED 0.577, read-out: LUCIFERASE INFECTION ASSAY - IC50) is reported as 9.58 µM and the IC90 is reported as > 10 µM.

Compound `CCn1c(=O)c(C)nc2cc(C(=O)Nc3ccc(C(C)(C)C)cc3)ccc21` has an IC50 (HEPG2TOX_HILL_SLOPE 2.17, HEPG2TOX_R_SQUARED 0.922, PBLUC_HILL_SLOPE 3.75, PBLUC_R_SQUARED 0.489, read-out: LUCIFERASE INFECTION ASSAY - IC50) of 0.966 µM and an IC90 of 1.74 µM.

In the case of `c1ccc(-c2cn3ccnc3c(NCc3ccncc3)n2)cc1`, the IC50 (HEPG2TOX_HILL_SLOPE 2.19, HEPG2TOX_R_SQUARED 0.99, PBLUC_HILL_SLOPE 12.4, PBLUC_R_SQUARED 0.482, read-out: LUCIFERASE INFECTION ASSAY - IC50) is reported as 3.76 µM and the IC90 is reported as 4.49 µM.

With `COc1cc(/C=N/n2cnc3scc(-c4ccc(C)cc4)c3c2=O)ccc1OC(=O)OC(C)(C)C` the IC50 (HEPG2TOX_HILL_SLOPE 2.15, HEPG2TOX_R_SQUARED 0.967, PBLUC_HILL_SLOPE 2.51, PBLUC_R_SQUARED 0.415, read-out: LUCIFERASE INFECTION ASSAY - IC50) was 4.26 µM and the IC90 was > 10 µM.

For `COc1ccc(OC)c(CCNc2nc3cnc(-c4cncnc4)cc3n2C)c1`, the IC50 (HEPG2TOX_HILL_SLOPE 2.17, HEPG2TOX_R_SQUARED 0.775, PBLUC_HILL_SLOPE 2.72, PBLUC_R_SQUARED 0.417, read-out: LUCIFERASE INFECTION ASSAY - IC50) was 4.95 µM and the IC90 was > 10 µM.

`Cc1nnsc1C(=O)Nc1cccc(C(F)(F)F)c1` showed an IC50 (HEPG2TOX_HILL_SLOPE 2.18, HEPG2TOX_R_SQUARED 0.919, PBLUC_HILL_SLOPE 3.32, PBLUC_R_SQUARED 0.374, read-out: LUCIFERASE INFECTION ASSAY - IC50) of 5.46 µM and an IC90 of 10.6 µM.

For `C/C(=N\NC(=N)N)c1ccc(Br)cc1`, the IC50 (HEPG2TOX_HILL_SLOPE 2.15, HEPG2TOX_R_SQUARED 0.936, PBLUC_HILL_SLOPE 0.739, PBLUC_R_SQUARED 0.608, read-out: LUCIFERASE INFECTION ASSAY - IC50) was 5.11 µM and the IC90 was > 12.9 µM.

With `CCc1cccc2c(C3=CCN(c4ccc([N+](=O)[O-])cn4)CC3)c[nH]c12` the IC50 (HEPG2TOX_HILL_SLOPE 2.16, 2.30, HEPG2TOX_R_SQUARED 0.931, 0.732, PBLUC_HILL_SLOPE 2.67, 4.10, PBLUC_R_SQUARED 0.259, 0.404, read-out: LUCIFERASE INFECTION ASSAY - IC50) was 5.92 µM and the IC90 was > 10 µM.

With `CCN1C(=O)N(CC(N)=O)C(=O)C12CCN(Cc1ccc(N(C)c3ccccc3)cc1)CC2` the IC50 (HEPG2TOX_HILL_SLOPE 2.17, HEPG2TOX_R_SQUARED 0.96, PBLUC_HILL_SLOPE 2.1, PBLUC_R_SQUARED 0.458, read-out: LUCIFERASE INFECTION ASSAY - IC50) was 3.27 µM and the IC90 was > 7.34 µM.

Work on `C[C@]12CC[C@H](O)C[C@H]1CCC1C2CC[C@]2(C)[C@@H](C3=CC(=O)OC3)CC[C@]12O` (stereo not given in full) yielded an IC50 (HEPG2TOX_HILL_SLOPE 2.19, HEPG2TOX_R_SQUARED 0.915, PBLUC_HILL_SLOPE 1.64, PBLUC_R_SQUARED 0.798, read-out: LUCIFERASE INFECTION ASSAY - IC50) of 0.0591 µM and an IC90 of 0.225 µM.
